The text below walks through data of PMC7282811.

Where two headings read alike, the source gives them in different places.

In one assay the target is T1, H3R (Mus musculus, UniProt P58406).
T1 construct: gene Hrh3; native receptor, endogenous in mouse brain tissue membranes
The assay can be described thus: tissue or organelle. Details: species or system brain tissue of 8-month-old Hdh^Q7/Q7 or Hdh^Q7/Q111 mice; radioligand binding to mouse brain region membranes, KD from saturation and competition curves. On the procedure:
(§1) Supplementary file elife-51093-supp2.docx: Supplementary file 2. H3R and D1R binding parameters in different brain regions from 8-month-old Hdh^Q7/Q7 and Hdh^Q7/Q111 mice. Mouse striatal, cortical or hippocampal tissue were homogenized in 50 mM Tris-HCl buffer and ligand binding was performed with membrane suspension (see online methods). Binding parameters from saturation and competition curves were obtained using Grafit software by fitting the binding data to the equation previously deduced (equation (3) in [Gracia et al., 2013]. Data are mean ± SEM of experiments performed per triplicate (n = 6 Hdh^Q7/Q7 and n = 5 Hdh^Q7/Q111). To test whether D1R-H3R heteromers can indeed be targets for treating HD, we investigated their expression and function in the striatum, cerebral cortex and hippocampus of a widely accepted preclinical model of HD, the heterozygous Hdh^Q7/Q111 mutant knock-in mice, and their wild-type Hdh^Q7/Q7 littermates ([Giralt et al., 2012]; [Puigdellívol et al., 2015]). By PLA we confirmed that both Hdh^Q7/Q7 and Hdh^Q7/Q111 mice display D1R-H3R heteromers at 2 months (mo) (Figure 2—figure supplement 1) and four mo (Figure 2A,B) of age in all brain regions tested. […] Heteromer expression was similar in all brain areas and no differences were observed between genotypes at 4 mo of age (Figure 2B). […] Although at 8 mo of age we detected a partial decrease in striatal D1R expression in Hdh^Q7/Q111 compared with Hdh^Q7/Q7 mice using ligand binding experiments (Supplementary file 2), the loss of heteromer expression is not due to a complete loss of receptor expression since by radioligand binding (Supplementary file 2) and mRNA expression analysis (Supplementary file 3) both receptors continue to be expressed.

Assay [1] deals with T2, dopamine D1 receptor (D1R) (Mus musculus, UniProt Q61616).
T2 construct: gene Drd1; native full-length receptor, endogenous in membranes of STHdh^Q7 mouse striatal cells; part may be in D1R-H3R heteromers
Details: species or system STHdh^Q7 or STHdh^Q111 mouse striatal cells; radioligand binding to striatal cell membranes, KD from saturation and competition curves. Conditions: STHdh^Q111 cell membranes; binder. The procedure:
Supplementary file elife-51093-supp1.docx: Supplementary file 1. H3R and D1R binding parameters in STHdh^Q7, STHdh^Q111 cells. Striatal cells were homogenized in 50 mM Tris-HCl buffer and ligand binding was performed with membrane suspension (see materials and methods). Binding parameters from saturation and competition curves were obtained using Grafit software by fitting the binding data to the equation previously deduced (equation (3) in [Gracia et al., 2013]. Data are mean ± SEM of experiments performed per triplicate.

The target in another assay is T3, D1R (Mus musculus, UniProt Q61616).
T3 construct: gene Drd1; native receptor, endogenous in mouse brain tissue membranes
The assay can be described thus: tissue or organelle. The arrangement: species or system brain tissue of 8-month-old Hdh^Q7/Q7 or Hdh^Q7/Q111 mice; radioligand binding to mouse brain region membranes, KD from saturation and competition curves. On the procedure: as §1

In assay [2] the target is T2, dopamine D1 receptor (D1R). The assay can be described thus: radioligand saturation binding, cell membranes, filtration. The following applies: labelled compound; STHdh^Q7 cell membranes; 50 mM Tris-HCl pH 7.4, 10 mM MgCl2, 25 °C; nonspecific with 30 µM unlabelled ligand; read-out: binding parameters. On the procedure:
radioligand saturation binding, cell membranes, filtration on dopamine D1 receptor (D1R) | membranes were incubated with increasing free concentrations of [^3H]

[3] abbreviates: Cortex, 8-month-old Hdh^Q7/Q7 mice.
Setting [4] is: Hippocampus, 8-month-old Hdh^Q7/Q7 mice.
The mark [5] stands for this setting: Hippocampus, 8-month-old Hdh^Q7/Q111 mice.
[6] abbreviates: Striatum, 8-month-old Hdh^Q7/Q7 mice.
Where [7] appears, read: Striatum, 8-month-old Hdh^Q7/Q111 mice.

T1 sequence (P58406 whole entry): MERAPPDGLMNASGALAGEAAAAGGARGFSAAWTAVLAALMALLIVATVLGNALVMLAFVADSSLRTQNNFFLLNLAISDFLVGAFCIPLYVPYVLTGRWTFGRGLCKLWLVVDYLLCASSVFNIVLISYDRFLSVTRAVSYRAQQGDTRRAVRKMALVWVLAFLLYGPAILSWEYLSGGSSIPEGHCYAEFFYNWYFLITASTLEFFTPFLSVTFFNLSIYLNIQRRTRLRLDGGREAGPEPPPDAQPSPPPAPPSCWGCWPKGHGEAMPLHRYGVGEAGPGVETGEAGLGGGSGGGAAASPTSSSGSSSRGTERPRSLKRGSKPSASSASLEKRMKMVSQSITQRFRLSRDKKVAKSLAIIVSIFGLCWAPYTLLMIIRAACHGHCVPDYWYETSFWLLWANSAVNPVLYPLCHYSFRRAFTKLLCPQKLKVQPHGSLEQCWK
T3 sequence (Q61616 whole entry): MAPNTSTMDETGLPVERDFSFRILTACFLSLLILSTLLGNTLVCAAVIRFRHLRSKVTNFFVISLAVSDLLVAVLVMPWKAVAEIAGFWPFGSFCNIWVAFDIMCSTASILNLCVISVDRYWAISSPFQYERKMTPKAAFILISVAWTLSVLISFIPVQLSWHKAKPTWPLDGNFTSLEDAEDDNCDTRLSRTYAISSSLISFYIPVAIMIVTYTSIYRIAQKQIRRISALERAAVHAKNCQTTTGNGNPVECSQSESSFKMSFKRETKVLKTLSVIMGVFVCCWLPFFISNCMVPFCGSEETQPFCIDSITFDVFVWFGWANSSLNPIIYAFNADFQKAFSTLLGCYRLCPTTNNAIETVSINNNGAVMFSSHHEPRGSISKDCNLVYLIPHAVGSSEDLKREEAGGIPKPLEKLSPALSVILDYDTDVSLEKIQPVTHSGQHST
T2 sequence (Q61616 whole entry): as above

`C[C@@H](N)Cc1c[nH]cn1` [[^3H] R-α-methyl histamine]: the Kd came to 220 ± 20 pM on H3R (setting [3]); 240 ± 40 pM at H3R (Cortex, 8-month-old Hdh^Q7/Q111 mice); 200 ± 10 pM on H3R (setting [4]); 370 ± 100 pM at H3R (setting [5]); 270 ± 30 pM at H3R (setting [6]); 260 ± 30 pM at H3R (setting [7]).
On to `CN1CCc2cc(Cl)c(O)cc2[C@@H](c2ccccc2)C1` [[^3H] SCH 23390], for which the Kd in assay [1] turned out to be 160 ± 80 pM; on D1R (setting [3]), 50 ± 10 pM; on D1R (setting [4]), 30 ± 20 pM; at D1R (setting [5]), 90 ± 70 pM; on D1R (setting [6]), 170 ± 20 pM; at D1R (setting [7]) it was 110 ± 10 pM. In addition, in assay [2], the Kd was determined as 300 ± 100 pM.
